Assays:
Format in all cases: functional
[1] = test system: Escherichia coli; assay: Antimicrobial activity against Extended-spectrum beta-lactamase producing Escherichia coli clinical isolate assessed as resistant isolate
[2] = test system: Escherichia coli; assay: Antimicrobial activity against Extended-spectrum beta-lactamase producing Escherichia coli clinical isolate assessed as resistant isolate in presence of beta-lactamase inhibitor Tazobactam
[3] = test system: Escherichia coli; assay: Antimicrobial activity against Extended-spectrum beta-lactamase producing Escherichia coli clinical isolate assessed as resistant isolate in presence of beta-lactamase inhibitor clavulanic acid

Compound	Activity [1]	also measured
O=C1CN(/N=C/c2ccc([N+](=O)[O-])o2)C(=O)N1 [NITROFURANTOIN]	7%	–
GENTAMICIN	42%	–
CCN1CCN(C(=O)N[C@@H](C(=O)N[C@@H]2C(=O)N3[C@@H]2SC(C)(C)[C@@H]3C(=O)O)c2ccccc2)C(=O)C1=O [PIPERACILLIN]	–	Activity [2]: 47%
NCC[C@H](O)C(=O)N[C@@H]1C[C@H](N)[C@@H](O[C@H]2O[C@H](CN)[C@@H](O)[C@H](O)[C@H]2O)[C@H](O)[C@H]1O[C@H]1O[C@H](CO)[C@@H](O)[C@H](N)[C@H]1O [AMIKACIN]	1%	–
NC[C@H]1O[C@H](O[C@H]2[C@H](O)[C@@H](O[C@H]3O[C@H](CO)[C@@H](O)[C@H](N)[C@H]3O)[C@H](N)C[C@@H]2N)[C@H](N)C[C@@H]1O [TOBRAMYCIN]	50%	–
CC1(C)S[C@@H]2[C@H](NC(=O)[C@H](N)c3ccc(O)cc3)C(=O)N2[C@H]1C(=O)O [AMOXICILLIN]	–	Activity [3]: 74%
